Experimental data taken from PubChem BioAssay AID256 (DTP/NCI, 2004).
Inconclusive results and toxic doses are left out. How the source made its calls: active means survival T/C of 150% or more; inactive means T/C below 125% in these data.

Test system: CD2F1 mice, L1210 leukemia ip, survival T/C
Experiment: NCI In Vivo Anticancer Drug Screen. Data for tumor model L1210 Leukemia (intraperitoneal) in CD2F1 (CDF1) mice
Conditions: higher = longer survival
Method in brief: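 Ratio T/C, where T is the treated-group value and C the vehicle-dosed control value, from mice implanted with a transplantable tumor.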

[1] = endpoint: mean survival time, dose: 25.0 mg/kg/injection, schedule: Q04DX002 (ip), vehicle: saline with Tween-80
[2] = endpoint: mean survival time, dose: 50.0 mg/kg/injection, schedule: Q04DX002 (ip), vehicle: saline with Tween-80
[3] = endpoint: mean survival time, dose: 100.0 mg/kg/injection, schedule: Q04DX002 (ip), vehicle: saline with Tween-80
[4] = endpoint: mean survival time, dose: 100.0 mg/kg/injection, schedule: Q01DX009 (ip), vehicle: saline with Tween-80
[5] = endpoint: mean survival time, dose: 100.0 mg/kg/injection, schedule: Q04DX003 (ip), vehicle: saline with Tween-80
[6] = endpoint: mean survival time, dose: 200.0 mg/kg/injection, schedule: Q01DX009 (ip), vehicle: saline with Tween-80
[7] = endpoint: mean survival time, dose: 200.0 mg/kg/injection, schedule: Q04DX003 (ip), vehicle: saline with Tween-80
[8] = endpoint: mean survival time, dose: 400.0 mg/kg/injection, schedule: Q01DX009 (ip), vehicle: saline with Tween-80
[9] = endpoint: mean survival time, dose: 400.0 mg/kg/injection, schedule: Q04DX003 (ip), vehicle: saline with Tween-80
[10] = endpoint: mean survival time, dose: 100.0 mg/kg/injection, schedule: Q01DX001 (ip), vehicle: saline with Tween-80
[11] = endpoint: mean survival time, dose: 200.0 mg/kg/injection, schedule: Q01DX001 (ip), vehicle: saline with Tween-80
[12] = endpoint: mean survival time, dose: 200.0 mg/kg/injection, schedule: Q04DX002 (ip), vehicle: saline with Tween-80
[13] = endpoint: mean survival time, dose: 400.0 mg/kg/injection, schedule: Q01DX001 (ip), vehicle: saline with Tween-80

Measured: T/C

CC(=O)C1CCC2C3CC=C4CC(n5cc(C)c(=O)[nH]c5=O)CCC4(C)C3CCC12C (stereo unspecified)
inactive: endpoint: mean survival time, dose: 12.5 mg/kg/injection, schedule: Q04DX003 (ip), vehicle: Klucel (hydroxypropylcellulose) (HPC) 90 % of control | endpoint: mean survival time, dose: 25.0 mg/kg/injection, schedule: Q01DX001 (ip), vehicle: Klucel (hydroxypropylcellulose) (HPC) 95 % of control | endpoint: mean survival time, dose: 25.0 mg/kg/injection, schedule: Q04DX003 (ip), vehicle: Klucel (hydroxypropylcellulose) (HPC) 96 % of control | endpoint: mean survival time, dose: 50.0 mg/kg/injection, schedule: Q01DX001 (ip), vehicle: Klucel (hydroxypropylcellulose) (HPC) 100 % of control | endpoint: mean survival time, dose: 50.0 mg/kg/injection, schedule: Q04DX003 (ip), vehicle: Klucel (hydroxypropylcellulose) (HPC) 94 % of control | endpoint: mean survival time, dose: 100.0 mg/kg/injection, schedule: Q01DX001 (ip), vehicle: Klucel (hydroxypropylcellulose) (HPC) 88 % of control | endpoint: mean survival time, dose: 100.0 mg/kg/injection, schedule: Q04DX003 (ip), vehicle: Klucel (hydroxypropylcellulose) (HPC) 100 % of control | endpoint: mean survival time, dose: 200.0 mg/kg/injection, schedule: Q01DX001 (ip), vehicle: Klucel (hydroxypropylcellulose) (HPC) 91 % of control | endpoint: mean survival time, dose: 200.0 mg/kg/injection, schedule: Q04DX003 (ip), vehicle: Klucel (hydroxypropylcellulose) (HPC) 102 % of control | endpoint: mean survival time, dose: 400.0 mg/kg/injection, schedule: Q01DX001 (ip), vehicle: Klucel (hydroxypropylcellulose) (HPC) 95 % of control

CCOC(=O)N1C(=O)C2C3CCC(O3)C2C1=O (stereo unspecified)
inactive: [1] 104 % of control | [2] 90 % of control | [3] 109 % of control

O=C1N(O)C2(CCCCC2)/C(=N/O)C12CCCCC2
inactive: endpoint: mean survival time, dose: 75.0 mg/kg/injection, schedule: Q01DX001 (ip), vehicle: saline 100 % of control | endpoint: mean survival time, dose: 150.0 mg/kg/injection, schedule: Q01DX001 (ip), vehicle: saline 94 % of control | endpoint: mean survival time, dose: 300.0 mg/kg/injection, schedule: Q01DX001 (ip), vehicle: saline 94 % of control

CCOC(=O)/C(N=Nc1ccc(O)cc1)=C(\C)O
inactive: endpoint: mean survival time, dose: 50.0 mg/kg/injection, schedule: Q01DX009 (ip), vehicle: Klucel (hydroxypropylcellulose) (HPC) 101 % of control | endpoint: mean survival time, dose: 100.0 mg/kg/injection, schedule: Q01DX009 (ip), vehicle: Klucel (hydroxypropylcellulose) (HPC) 93 % of control | endpoint: mean survival time, dose: 100.0 mg/kg/injection, schedule: Q04DX003 (ip), vehicle: acetone 95 % of control | endpoint: mean survival time, dose: 200.0 mg/kg/injection, schedule: Q01DX009 (ip), vehicle: Klucel (hydroxypropylcellulose) (HPC) 96 % of control | endpoint: mean survival time, dose: 200.0 mg/kg/injection, schedule: Q04DX003 (ip), vehicle: acetone 98 % of control

Nc1ccccc1N=Cc1cccc([N+](=O)[O-])c1
inactive: [4] 94 % of control | [5] 101 % of control | [6] 96 % of control | [7] 98 % of control | [8] 100 % of control | [9] 101 % of control

O=[N+]([O-])c1c(Cl)c(Cl)cc(Cl)c1Cl
inactive: [4] 94 % of control | [5] 93 % of control | [6] 96 % of control | [7] 97 % of control | [8] 98 % of control | [9] 98 % of control

CCCCCCCCCCCC1=C(O)C(=O)C=C(O)C1=O
inactive: endpoint: mean survival time, dose: 12.5 mg/kg/injection, schedule: Q01DX001 (ip), vehicle: saline 102 % of control | endpoint: mean survival time, dose: 25.0 mg/kg/injection, schedule: Q01DX001 (ip), vehicle: saline 123 % of control | endpoint: mean survival time, dose: 50.0 mg/kg/injection, schedule: Q01DX001 (ip), vehicle: saline 101 % of control

CC(C)P(=O)(CC(=O)O)c1ccccc1 (stereo unspecified)
inactive: [1] 107 % of control | [2] 96 % of control | [3] 100 % of control

O=C(O)C1=CCCc2ccc(Br)cc21
inactive: endpoint: median survival time, dose: 25.0 mg/kg/injection, schedule: Q04DX003 (ip), vehicle: saline with Tween-80 100 % of control | endpoint: median survival time, dose: 50.0 mg/kg/injection, schedule: Q04DX003 (ip), vehicle: saline with Tween-80 100 % of control | endpoint: median survival time, dose: 100.0 mg/kg/injection, schedule: Q04DX003 (ip), vehicle: saline with Tween-80 88 % of control | endpoint: median survival time, dose: 200.0 mg/kg/injection, schedule: Q04DX003 (ip), vehicle: saline with Tween-80 88 % of control

O=[N+]([O-])c1ccc(Cl)c(CNc2ncnc3c2ncn3C2CCCCO2)c1 (stereo unspecified)
inactive: endpoint: mean survival time, dose: 100.0 mg/kg/injection, schedule: Q01DX009 (ip), vehicle: acetone 95 % of control | endpoint: mean survival time, dose: 200.0 mg/kg/injection, schedule: Q01DX009 (ip), vehicle: acetone 97 % of control | endpoint: mean survival time, dose: 400.0 mg/kg/injection, schedule: Q01DX009 (ip), vehicle: acetone 93 % of control

CC[C@@]1(O)C[C@H](OC2CC(N(C)C)C(OC3CC(O)C(OC4CC(O)C(O)C(C)O4)C(C)O3)C(C)O2)c2c(cc3c(c2O)C(=O)c2c(O)ccc(O)c2C3=O)[C@H]1C(=O)OC (stereo partly specified)
inactive: endpoint: mean survival time, dose: 3.8 mg/kg/injection, schedule: Q01DX001 (ip), vehicle: other 117 % of control | endpoint: mean survival time, dose: 7.5 mg/kg/injection, schedule: Q01DX001 (ip), vehicle: other 120 % of control | endpoint: mean survival time, dose: 15.0 mg/kg/injection, schedule: Q01DX001 (ip), vehicle: other 96 % of control

O=C(O)c1cc(Cl)c(Cl)cn1
inactive: endpoint: mean survival time, dose: 50.0 mg/kg/injection, schedule: Q01DX001 (ip), vehicle: saline with Tween-80 97 % of control | [10] 98 % of control | [11] 103 % of control

COc1ccc(C(=O)C(C)(C)C)cc1
inactive: [3] 108 % of control | [12] 97 % of control

CCCCN(CCCC)CC(O)c1cc(-c2cc(C(O)CN(CCCC)CCCC)c3ccccc3n2)nc2ccccc12 (stereo unspecified)
inactive: [5] 95 % of control | [7] 86 % of control

O=c1[nH]ncc2c(C3OC(CO)C(O)C3O)cnn12 (stereo unspecified)
inactive: endpoint: median survival time, dose: 4.75 mg/kg/injection, schedule: Q01DX005 (ip), vehicle: distilled water + Tween-80 109 % of control | endpoint: median survival time, dose: 9.5 mg/kg/injection, schedule: Q01DX005 (ip), vehicle: distilled water + Tween-80 100 % of control | endpoint: median survival time, dose: 19.0 mg/kg/injection, schedule: Q01DX005 (ip), vehicle: distilled water + Tween-80 106 % of control | endpoint: median survival time, dose: 38.0 mg/kg/injection, schedule: Q01DX005 (ip), vehicle: distilled water + Tween-80 102 % of control | endpoint: median survival time, dose: 76.0 mg/kg/injection, schedule: Q01DX005 (ip), vehicle: distilled water + Tween-80 98 % of control

Cc1c2c(cc3c1CCC1(C)C3CCC1C(C)/C=C/C(C)C(C)C)CC(O)CC2 (stereo unspecified)
inactive: [10] 92 % of control | [11] 95 % of control | [13] 92 % of control

Cc1cc(N(CCCOS(C)(=O)=O)CCCOS(C)(=O)=O)ccc1C=Nc1ccc(-c2csc(COc3ccccc3)n2)cc1
inactive: [10] 89 % of control | [4] 90 % of control | [11] 91 % of control | [6] 86 % of control | [13] 88 % of control

CCc1ccccc1NC(=O)/C=C/c1ccccc1
inactive: [3] 86 % of control | [12] 96 % of control | endpoint: mean survival time, dose: 400.0 mg/kg/injection, schedule: Q04DX002 (ip), vehicle: saline with Tween-80 93 % of control

C=CC#N
inactive: endpoint: mean survival time, dose: 12.5 mg/kg/injection, schedule: Q04DX003 (ip), vehicle: saline with Tween-80 105 % of control | endpoint: mean survival time, dose: 25.0 mg/kg/injection, schedule: Q04DX003 (ip), vehicle: saline with Tween-80 102 % of control | endpoint: mean survival time, dose: 50.0 mg/kg/injection, schedule: Q04DX003 (ip), vehicle: saline with Tween-80 108 % of control

Cn1c(=O)c2c(nc(Br)n2CC(O)CF)n(C)c1=O (stereo unspecified)
inactive: endpoint: mean survival time, dose: 12.5 mg/kg/injection, schedule: Q01DX005 (ip), vehicle: distilled water + Tween-80 101 % of control | endpoint: mean survival time, dose: 25.0 mg/kg/injection, schedule: Q01DX005 (ip), vehicle: distilled water + Tween-80 98 % of control | endpoint: mean survival time, dose: 50.0 mg/kg/injection, schedule: Q01DX005 (ip), vehicle: distilled water + Tween-80 98 % of control | endpoint: mean survival time, dose: 100.0 mg/kg/injection, schedule: Q01DX005 (ip), vehicle: distilled water + Tween-80 101 % of control | endpoint: mean survival time, dose: 200.0 mg/kg/injection, schedule: Q01DX005 (ip), vehicle: distilled water + Tween-80 96 % of control

CCC(C)OC(=O)Nc1ccccc1 (stereo unspecified)
inactive: [4] 96 % of control | [5] 94 % of control | [6] 98 % of control | [7] 94 % of control | [8] 98 % of control | [9] 94 % of control

COCCOCCOCCOCCOCCN
inactive: endpoint: mean survival time, dose: 100.0 mg/kg/injection, schedule: Q04DX003 (ip), vehicle: saline 103 % of control | endpoint: mean survival time, dose: 200.0 mg/kg/injection, schedule: Q04DX003 (ip), vehicle: saline 101 % of control | endpoint: mean survival time, dose: 400.0 mg/kg/injection, schedule: Q04DX003 (ip), vehicle: saline 103 % of control

c1ccc(CNCCNCc2ccccc2)cc1
inactive: [4] 95 % of control | [5] 97 % of control
